# Laboratory results reported in paper PMC1876254 (Plant Molecular Biology, 2007).
# Molecular target: T1, LeMTS1 (Solanum lycopersicum, UniProt Q1XBU5)
# T1 sequence (Q1XBU5 44-609): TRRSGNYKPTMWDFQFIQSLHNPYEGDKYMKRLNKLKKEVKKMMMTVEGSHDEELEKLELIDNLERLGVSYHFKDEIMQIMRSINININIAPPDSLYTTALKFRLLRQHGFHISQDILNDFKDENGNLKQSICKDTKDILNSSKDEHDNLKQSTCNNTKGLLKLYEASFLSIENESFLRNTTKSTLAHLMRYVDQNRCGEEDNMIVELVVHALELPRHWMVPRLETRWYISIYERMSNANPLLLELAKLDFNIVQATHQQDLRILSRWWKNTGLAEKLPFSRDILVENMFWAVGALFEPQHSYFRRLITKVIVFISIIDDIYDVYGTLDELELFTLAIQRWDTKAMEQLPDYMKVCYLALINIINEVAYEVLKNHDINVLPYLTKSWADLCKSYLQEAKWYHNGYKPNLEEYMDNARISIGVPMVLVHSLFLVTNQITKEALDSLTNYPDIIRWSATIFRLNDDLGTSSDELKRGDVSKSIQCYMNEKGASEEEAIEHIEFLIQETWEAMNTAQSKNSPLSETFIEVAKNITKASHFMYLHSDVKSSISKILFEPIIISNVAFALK
# Assay: terpene synthase assay, SPME GC-TOF-MS of products
# Assay type: biochemical
# Conditions: product (E)-nerolidol; 10 uM substrate, 10 mM MgCl2, 2 mM MnCl2, HEPES pH 7.5, 30 C, 1 h
smiles,measurement,value
CC(C)=CCC/C(C)=C/CC/C(C)=C/COP(=O)(O)OP(=O)(O)O [FPP],"terpene synthase assay, SPME GC-TOF-MS of products",LeMTS1 was also able to utilize the sesquiterpene precursor farnesyl diphosphate (FPP) as substrate
